The values that follow come from US5698411A, “Method for determining activity of enzymes in metabolically active whole cells” (priority 1995, dated 1997).

Each structure is given as a SMILES string. Structures can show the parent of a compound that is named as a salt. Numbered stars: 1 amine (or outer) side, 2 acyl side, 3 side chain; on linkers, the order of the positions; unused ones are H or OH. Bridge positions count the residues as written; N and C are the ends. Peptide text beside a SMILES is read from it. I, II: the chains in the order shown. Rhodamine110 = O=C1OC2(c3ccc(N[*:1])cc3Oc3cc(N[*:2])ccc32)c2ccccc21

Type in all cases: cell-based, human
One experiment concerns lymphocytes. Put plainly: aberrant enzyme activities in febrile children, lymphocytes (Table 7).
The test system of another experiment is monocytes. Put plainly: aberrant enzyme activities in febrile children, monocytes (Table 7).
The test system of another experiment is granulocytes. The experiment is described as follows: aberrant enzyme activities in febrile children, granulocytes (Table 7).

`C[C@H](N)C(=O)N[C@@H](C)C(=O)Nc1ccc2c(c1)Oc1cc(NC(=O)[C@H](C)NC(=O)[C@H](C)N)ccc1C21OC(=O)c2ccccc21` [AA-TFA, (H-L-Ala--Ala)2 Rho 110 .2TFA]: the “aberrant enzyme activity, LYMPHS” value in the experiment with lymphocytes (P92 Adenitis), with lymphocytes (P97 Pyelonephritis) and in the experiment on lymphocytes (P103 Viral Syndrome) was “.smallcircle” throughout.

For the molecule `N=C(N)NCCC[C@H](N)C(=O)Nc1ccc2c(c1)Oc1cc(NC(=O)[C@@H](N)CCCNC(=N)N)ccc1C21OC(=O)c2ccccc21` (stereo partly drawn) [ARG, (H-L-Arg)2 Rho 110 .4TFA], the “aberrant enzyme activity, MONOS” value in the experiment with monocytes (P95 Viral Syndrome), in the experiment on monocytes (P96 Viral Syndrome), in the experiment on monocytes (P97 Pyelonephritis), with monocytes (P99 Viral Syndrome) and with monocytes (P102 UTI) was “.smallcircle” throughout. The “aberrant enzyme activity, GRANS” value in the experiment with granulocytes (P95 Viral Syndrome), in the experiment with granulocytes (P96 Viral Syndrome) and in the experiment with granulocytes (P102 UTI) was “.smallcircle” throughout. For the same molecule, the “aberrant enzyme activity, LYMPHS” value was “.smallcircle” with lymphocytes (P92 Adenitis); “.smallcircle” in the experiment on lymphocytes (P95 Viral Syndrome); “.smallcircle” with lymphocytes (P97 Pyelonephritis, listed as Arg-TFA); “.smallcircle” in the experiment on lymphocytes (P99 Viral Syndrome); “.smallcircle” with lymphocytes (P102 UTI); “.smallcircle” in the experiment on lymphocytes (P103 Viral Syndrome).

For the molecule `N[C@@H](CC(=O)O)C(=O)Nc1ccc2c(c1)Oc1cc(NC(=O)[C@@H](N)CC(=O)O)ccc1C21OC(=O)c2ccccc21` [ASP, (H-L-Asp)2 --Rho 110 .2TFA], the “aberrant enzyme activity, MONOS” value with monocytes (P92 Adenitis), in the experiment with monocytes (P97 Pyelonephritis) and in the experiment with monocytes (P103 Viral Syndrome) was “.smallcircle” each time. Besides, the “aberrant enzyme activity, GRANS” value in the experiment with granulocytes (P92 Adenitis), in the experiment with granulocytes (P97 Pyelonephritis) and with granulocytes (P103 Viral Syndrome) was “.smallcircle” in each case. The “aberrant enzyme activity, LYMPHS” value with lymphocytes (P92 Adenitis), with lymphocytes (P97 Pyelonephritis) and in the experiment on lymphocytes (P103 Viral Syndrome) was “.smallcircle” throughout.

For `O=C1OC2(c3ccc(OC4O[C@H](CO)[C@@H](O)[C@H](O)[C@H]4O)cc3Oc3cc(OC4O[C@H](CO)[C@@H](O)[C@H](O)[C@H]4O)ccc32)c2ccccc21` (stereo partly drawn) [DGLUC, (D-glucose)2 fluorescein], the “aberrant enzyme activity, MONOS” value in the experiment on monocytes (P88 Enteritis) was “- (>0.25 Decrease over normal range)”; in the experiment on monocytes (P89 Viral Stomatitis), “.smallcircle”; with monocytes (P92 Adenitis), “- (>0.25 Decrease over normal range)”; with monocytes (P103 Viral Syndrome) it was “+ (>0.25 Increase over normal range)”. The “aberrant enzyme activity, GRANS” value in the experiment on granulocytes (P88 Enteritis) is listed as “.smallcircle”; in the experiment with granulocytes (P89 Viral Stomatitis) it was “+ (>0.25 Increase over normal range)”; with granulocytes (P92 Adenitis) it was “+ (>0.25 Increase over normal range)”; in the experiment on granulocytes (P103 Viral Syndrome), “+ (>0.25 Increase over normal range)”. Also, the “aberrant enzyme activity, LYMPHS” value in the experiment on lymphocytes (P88 Enteritis) is on record as “.smallcircle”; in the experiment on lymphocytes (P89 Viral Stomatitis) it was “.smallcircle”; with lymphocytes (P92 Adenitis) it was “.smallcircle”; with lymphocytes (P103 Viral Syndrome), “- (>0.25 Decrease over normal range)”.

As for `CC(C)C[C@H](NC(=O)[C@@H]1CCCN1C(=O)CN)C(=O)NCC(=O)N1CCC[C@H]1C(=O)Nc1ccc2c(c1)Oc1cc(NC(=O)[C@@H]3CCCN3C(=O)CNC(=O)[C@H](CC(C)C)NC(=O)[C@@H]3CCCN3C(=O)CN)ccc1C21OC(=O)c2ccccc21` [GPLGP, (H-Gly--Pro--Leu--Gly--Pro)2 Rho 110 .2TFA] (I: H-GPLGP / II: H-GPLGP; linker I:C-II:C via Rhodamine110), in the experiment on monocytes (P89 Viral Stomatitis), the “aberrant enzyme activity, MONOS” value was “.smallcircle”. The “aberrant enzyme activity, GRANS” value in the experiment with granulocytes (P88 Enteritis), with granulocytes (P89 Viral Stomatitis) and in the experiment on granulocytes (P102 UTI) was “.smallcircle” in each case. The “aberrant enzyme activity, LYMPHS” value with lymphocytes (P88 Enteritis), in the experiment with lymphocytes (P89 Viral Stomatitis) and in the experiment with lymphocytes (P102 UTI) was “.smallcircle” throughout.

On to `C[C@H](NC(=O)[C@@H](N)CCCCN)C(=O)Nc1ccc2c(c1)Oc1cc(NC(=O)[C@H](C)NC(=O)[C@@H](N)CCCCN)ccc1C21OC(=O)c2ccccc21` [KA, (Lys-Ala)2 Rho 110], for which the “aberrant enzyme activity, MONOS” value in the experiment with monocytes (P88 Enteritis) was “.smallcircle”; in the experiment with monocytes (P89 Viral Stomatitis) it was “.smallcircle”; in the experiment with monocytes (P92 Adenitis), “.smallcircle”; in the experiment on monocytes (P95 Viral Syndrome), “.smallcircle”; in the experiment on monocytes (P96 Viral Syndrome), “.smallcircle”; in the experiment on monocytes (P97 Pyelonephritis) it was “+ (>0.25 Increase over normal range)”. Further, the “aberrant enzyme activity, MONOS” value in the experiment on monocytes (P99 Viral Syndrome) was “.smallcircle”; with monocytes (P101 Fever -- Unknown Origin), “+ (>0.25 Increase over normal range)”; in the experiment on monocytes (P102 UTI), “.smallcircle”; with monocytes (P103 Viral Syndrome), “.smallcircle”. The “aberrant enzyme activity, GRANS” value in the experiment with granulocytes (P88 Enteritis), with granulocytes (P89 Viral Stomatitis), in the experiment with granulocytes (P92 Adenitis), with granulocytes (P95 Viral Syndrome), in the experiment on granulocytes (P96 Viral Syndrome) and in the experiment with granulocytes (P97 Pyelonephritis) was “.smallcircle” throughout. Moreover, the “aberrant enzyme activity, GRANS” value in the experiment with granulocytes (P99 Viral Syndrome) was “.smallcircle”; in the experiment with granulocytes (P101 Fever -- Unknown Origin), “+ (>0.25 Increase over normal range)”; with granulocytes (P102 UTI), “.smallcircle”; in the experiment with granulocytes (P103 Viral Syndrome) it was “.smallcircle”. Also, the “aberrant enzyme activity, LYMPHS” value with lymphocytes (P88 Enteritis), with lymphocytes (P89 Viral Stomatitis), in the experiment on lymphocytes (P92 Adenitis), with lymphocytes (P95 Viral Syndrome), in the experiment on lymphocytes (P96 Viral Syndrome) and in the experiment on lymphocytes (P97 Pyelonephritis) was “.smallcircle” throughout. For the same molecule, the “aberrant enzyme activity, LYMPHS” value with lymphocytes (P99 Viral Syndrome), in the experiment with lymphocytes (P102 UTI) and with lymphocytes (P103 Viral Syndrome) was “.smallcircle” each time.

In the case of `CC(C)C[C@H](NC(=O)CNC(=O)[C@@H](N)CC(C)C)C(=O)NCC(=O)Nc1ccc2c(c1)Oc1cc(NC(=O)CNC(=O)[C@H](CC(C)C)NC(=O)CNC(=O)[C@@H](N)CC(C)C)ccc1C21OC(=O)c2ccccc21` [LGLG, (H-L-Leu--Gly--Leu--Gly)2 Rho 110 .2TFA] (I: H-LGLG / II: H-LGLG; linker I:C-II:C via Rhodamine110), the “aberrant enzyme activity, MONOS” value in the experiment on monocytes (P92 Adenitis), in the experiment with monocytes (P97 Pyelonephritis) and with monocytes (P103 Viral Syndrome) was “.smallcircle” throughout. Further, the “aberrant enzyme activity, GRANS” value in the experiment on granulocytes (P92 Adenitis), in the experiment with granulocytes (P97 Pyelonephritis) and with granulocytes (P103 Viral Syndrome) was “.smallcircle” throughout. The “aberrant enzyme activity, LYMPHS” value in the experiment with lymphocytes (P92 Adenitis), in the experiment on lymphocytes (P97 Pyelonephritis) and with lymphocytes (P103 Viral Syndrome) was “.smallcircle” each time.

With `CC(C)C[C@H](NC(=O)[C@@H](N)CC(C)C)C(=O)N[C@@H](CCCNC(=N)N)C(=O)Nc1ccc2c(c1)Oc1cc(NC(=O)[C@H](CCCNC(=N)N)NC(=O)[C@H](CC(C)C)NC(=O)[C@@H](N)CC(C)C)ccc1C21OC(=O)c2ccccc21` (some centres unmarked) [LLR, (H-L Leu--Leu--Arg)2 Rho 110 .4TFA], the “aberrant enzyme activity, MONOS” value in the experiment on monocytes (P92 Adenitis) and with monocytes (P97 Pyelonephritis) was “.smallcircle” each time. The “aberrant enzyme activity, GRANS” value in the experiment on granulocytes (P92 Adenitis), in the experiment with granulocytes (P97 Pyelonephritis) and in the experiment on granulocytes (P103 Viral Syndrome) was “.smallcircle” throughout. For the same molecule, the “aberrant enzyme activity, LYMPHS” value in the experiment on lymphocytes (P92 Adenitis), in the experiment with lymphocytes (P97 Pyelonephritis) and in the experiment on lymphocytes (P103 Viral Syndrome) was “.smallcircle” in each case.

Regarding `N[C@@H](CO)C(=O)Nc1ccc2c(c1)Oc1cc(NC(=O)[C@@H](N)CO)ccc1C21OC(=O)c2ccccc21` [SER, (H-L-Ser)2 Rho 110 .2TFA], the “aberrant enzyme activity, MONOS” value in the experiment on monocytes (P92 Adenitis) and in the experiment on monocytes (P97 Pyelonephritis) was “.smallcircle” in each case. Moreover, the “aberrant enzyme activity, GRANS” value in the experiment with granulocytes (P97 Pyelonephritis) and in the experiment with granulocytes (P103 Viral Syndrome) was “.smallcircle” in each case. For the same molecule, the “aberrant enzyme activity, LYMPHS” value with lymphocytes (P92 Adenitis), with lymphocytes (P97 Pyelonephritis) and in the experiment on lymphocytes (P103 Viral Syndrome) was “.smallcircle” in each case.

In the case of `C[C@H](NC(=O)OCc1ccccc1)C(=O)N[C@@H](C)C(=O)Nc1ccc2c(c1)Oc1cc(NC(=O)[C@H](C)NC(=O)[C@H](C)NC(=O)OCc3ccccc3)ccc1C21OC(=O)c2ccccc21` [Z-AA, (Z-Ala--Ala)2 Rho 110], the “aberrant enzyme activity, MONOS” value in the experiment on monocytes (P96 Viral Syndrome), in the experiment on monocytes (P97 Pyelonephritis), in the experiment on monocytes (P99 Viral Syndrome), in the experiment on monocytes (P102 UTI) and in the experiment on monocytes (P103 Viral Syndrome) was “.smallcircle” throughout. Further, the “aberrant enzyme activity, GRANS” value with granulocytes (P96 Viral Syndrome), with granulocytes (P97 Pyelonephritis), in the experiment on granulocytes (P99 Viral Syndrome), in the experiment on granulocytes (P102 UTI) and in the experiment on granulocytes (P103 Viral Syndrome) was “.smallcircle” throughout. Moreover, the “aberrant enzyme activity, LYMPHS” value in the experiment with lymphocytes (P99 Viral Syndrome) and in the experiment on lymphocytes (P102 UTI) was “.smallcircle” throughout.
